Reference: patent US20260317277A1, “ARYLALKYLAMINE COMPOUND, AND PREPARATION METHOD THEREFOR AND USE THEREOF” (RENHE YIKANG GROUP CO., LTD., priority 2024, published 2026)

What was measured:
[1] = Pharmacokinetic study in SD rats; type: in vivo, Male Sprague-Dawley (SD) rats; conditions: male SD rats, oral gavage; Evocalcet = 100
Protocol: Animal Information: Male Sprague-Dawley (SD) rats, aged 7-8 weeks, were used. Each group consisted of 3-5 rats.
Dosing Information: The rats were fasted for more than 12 hours prior to administration. A single dose was administered via oral gavage.
Blood Sampling Time Points: Blood samples were collected from the tail vein before administration and at 0.25, 0.5, 1, 2, 4, 6, 8, and 24 hours post-administration. A volume of 100 μL of blood was collected at each time point.
Sample Processing and Storage: The blood samples were transferred into 1.5 mL microcentrifuge tubes, with 50 μL per tube (two tubes per sample). Centrifugation was completed within 2 hours. Whole blood samples were kept on ice prior to centrifugation. Centrifugation was performed at 4000 rpm, 2-8° C., for 10 minutes. After collecting the supernatant, it was stored at −80° C. or below if not analyzed immediately.
Column: An InfinityLab Poroshell 120 SB-C18 column (2.1×100 mm, 2.7 μm) was used. Column Temperature: The temperature was maintained at 30° C. Flow Rate: The flow rate was set at 0.3 mL/min. Run Time: The total run time was 9.5 minutes. Post-run Time: A post-run time of 2 minutes was applied. Injection Volume: An injection volume of 2 μL was used. Mobile Phase: A mixture of methanol and 0.1% formic acid was employed as the mobile phase. Gradient Elution: Gradient elution was performed according to the table below.
b) the Mass Spectrometry Conditions were Set as Follows: […]
Preparation of Standard Solutions: Appropriate volumes of Evocalcet, Compound 2, and Compound 3 stock solutions were precisely measured and diluted with 50% methanol to prepare standard solutions with concentrations of 80, 200, 1000, 5000, 10000, 20000, and 40000 ng/mL.
Preparation of Internal Standard (Clenbuterol Hydrochloride) Solution: 10 mg of clenbuterol hydrochloride was accurately weighed and transferred into a 10 mL volumetric flask. […] An appropriate volume of the stock solution was precisely measured and diluted with methanol to prepare a 2000 ng/mL internal standard working solution. […]

[2] = Review Report on Evocalcet Tablets 1 mg and 2 mg, March 2018; cited from earlier work

Relative bioavailability (%) [1] [%] | SMILES | adverse reactions [2]
136 | C[C@@H](N[C@H]1CCN(c2ccc(CC(=O)O)cc2F)C1)c1cccc2ccccc12 [Compound 2, 2-(3-fluoro-4-((S)-3-(((R)-1-(naphthalen-1-yl)ethyl)amino)pyrrolidin-1-yl)phenyl)acetic Acid] | 
144 | Cc1cc(CC(=O)O)ccc1N1CC[C@H](N[C@H](C)c2cccc3ccccc23)C1 [Compound 3, 2-(3-methyl-4-((S)-3-(((R)-1-(naphthalen-1-yl)ethyl)amino)pyrrolidin-1-yl)phenyl)acetic Acid] | 
100 | C[C@@H](N[C@H]1CCN(c2ccc(CC(=O)O)cc2)C1)c1cccc2ccccc12 [Evocalcet] | hypocalcemia, vomiting, nausea, chills, QT prolongation, mood disturbances, cardiac arrhythmia, hypotension, and cramps
